Reference: patent US11453633B2, “Production method for crystal of reduced coenzyme Q10 having excellent stability” (KANEKA CORPORATION, priority 2018, dated 2022)

What was measured:
[1] = compared with the conventional reduced coenzyme Q10 Form I crystal; cited from earlier work
[2] = Reduced coenzyme Q10 concentration dissolved in the liquid phase of the crystallization mixture, by HPLC (Example 11); assay type: physicochemical; conditions: 99.5% ethanol
Procedure: The inside of a 500 mL separable flask (made of borosilicate glass) was replaced with nitrogen, and 40.0 g of reduced coenzyme Q10 and 360 g of 99.5% ethanol were then added thereto (reduced coenzyme Q10 concentration: 10 wt. %). Thereafter, the obtained raw material mixture was warmed to 42° C. while stirring with a stirring blade (power required for stirring: 0.1 kw/m^3) to obtain a homogeneous solution. This solution was cooled to 35° C., and thereafter, 0.4 g (1 wt. %) of reduced coenzyme Q10 crystals comprising reduced coenzyme Q10 Form II crystals were added as seed crystals to the solution.
The mixture obtained after the addition of the seed crystals was kept at 35° C. for 15 hours to precipitate crystals. Thereafter, the mixture was cooled to 25° C. at a constant cooling rate of −2° C./hour over 5 hours, and was then cooled to 10° C. at a constant cooling rate of −10° C./hour over 1.5 hours, to further precipitate crystals. After the temperature had reached 10° C., the mixture was filtered for solid-liquid separation. The obtained crystal was dried under reduced pressure at 35° C. for 10 hours to obtain a reduced coenzyme Q10 Form II crystal (Form II rate: 100%; recovery rate: 97%).
In the present experiment, the liquid phase of the mixture was sampled immediately before addition of the seed crystals (at 0 hour), and then at 3 hours, 6 hours, 9 hours, 12 hours, 15 hours (so far, at 35° C.), 17.5 hours (30° C.), 20 hours (25° C.), 20.5 hours (20° C.), and 21.5 hours (10° C.) after the addition of the seed crystals. The concentration (wt. %) of reduced coenzyme Q10 dissolved in the liquid phase sample was measured according to high performance liquid chromatography.
Conditions for the high performance liquid chromatography, by which the reduced coenzyme Q10 concentration was measured, are shown below.
Column: SYMMETRY C18 (manufactured by Waters); 250 mm (length), 4.6 mm (inner diameter)
Mobile phase: C2H5OH:CH3OH=4:3 (v:v)
Detection wavelength: 210 nm
Retention time of reduced coenzyme Q10: 9.1 min.

[3] = compared with oxidized coenzyme Q10; cited from earlier work

SMILES | stability of the crystal form [1] | Reduced coenzyme Q10 concentration ([2]; crystallization time 0 h (immediately before addition of the seed crystals), 35° C.) [wt %] | Reduced coenzyme Q10 concentration ([2]; crystallization time 3 h, 35° C.) [wt %] | Reduced coenzyme Q10 concentration ([2]; crystallization time 6 h, 35° C.) [wt %] | Reduced coenzyme Q10 concentration ([2]; crystallization time 9 h, 35° C.) [wt %] | Reduced coenzyme Q10 concentration ([2]; crystallization time 12 h, 35° C.) [wt %] | Reduced coenzyme Q10 concentration ([2]; crystallization time 15 h, 35° C.) [wt %] | Reduced coenzyme Q10 concentration ([2]; crystallization time 17.5 h, 30° C.) [wt %] | Reduced coenzyme Q10 concentration ([2]; crystallization time 20 h, 25° C.) [wt %] | Reduced coenzyme Q10 concentration ([2]; crystallization time 20.5 h, 20° C.) [wt %] | Reduced coenzyme Q10 concentration ([2]; crystallization time 21.5 h, 10° C.) [wt %] | oral absorbability [3]
COc1c(O)c(C)c(C/C=C(\C)CC/C=C(\C)CC/C=C(\C)CC/C=C(\C)CC/C=C(\C)CC/C=C(\C)CC/C=C(\C)CC/C=C(\C)CC/C=C(\C)CCC=C(C)C)c(O)c1OC [reduced coenzyme Q10 Form II crystal, reduced coenzyme Q10] | much more stable |  |  |  |  |  |  |  |  |  |  | 
COc1c(O)c(C)c(C/C=C(\C)CC/C=C(\C)CC/C=C(\C)CC/C=C(\C)CC/C=C(\C)CC/C=C(\C)CC/C=C(\C)CC/C=C(\C)CC/C=C(\C)CCC=C(C)C)c(O)c1OC [reduced coenzyme Q10] |  | 10.0 | 9.9 | 9.6 | 9.2 | 8.5 | 7.2 | 3.1 | 1.5 | 0.8 | 0.3 | higher oral absorbability than that of oxidized coenzyme Q10
